The record followed here is patent publication US20070213339A1 (Bayer Pharmaceuticals Corporation, priority 2004, published 2007).

SMILES strings stand for the structures. Bounds are passed on as bounds.

This experiment has as its system Colo205 human colon carcinoma cell line. The experiment is described as follows: In vitro tumor cell proliferation assay (MTS, CellTiter 96 Aqueous One Solution). Conditions: COLO 205, Colo205 cells, 72 hours compound exposure, MTS absorbance at 490 nm, read-out: IC50 (concentration of test compound required to inhibit proliferation of 50% of the cells). The class given is cell-based. On the procedure:
In Vitro Tumor Cell Proliferation Assay
The adherent H460 human non-small cell lung carcinoma and Colo205 human colon carcinoma cell lines were purchased from the American Type and Culture Collection (ATCC, Manassas, Va.) and maintained in RPMI-1640 growth media supplemented with 10% heat inactivated fetal bovine serum (Gibco, Invitrogen Corp. Grand Island, N.Y.). At 37° C. in a humidified atmosphere of 5% CO2.
The CellTiter 960 Aqueous One Solution kit, MTS, (Promega, Madison, Wis.) was used to measure proliferation of tumor cell lines in vitro. This method monitors the bioreduction of a tetrazolium dye as a measure of cell viability. On Day 0, exponentially growing cells were trypsinized, resuspended in RPMI-1640 growth media supplemented with 10% FCS, 100 u/ml of penicillin G and 100 ug/ml of streptomycin sulfate, and seeded at 2000 cells per well into 96 well microtiter plates. Cells were incubated overnight in a humidified atmosphere of 5% CO2 at 37° C. On Day 1, serial dilutions of compounds were prepared at 2× the finial assay concentration. One hundred microliters of 2× solution was added to test wells in duplicate and control wells received no test compound. The final drug concentration ranged from 0 to 10-20 um in a 5 point dose-response curve. Cells were incubated in the presence of test compounds in a humidified atmosphere of 5% CO2 at 37° C. for 72 hours. After 72 hours of compound exposure, 40 ul of Promega CellTiter 960 Aqueous One Solution was added to each well and absorbance at 490 n-M was measured using a multi-well plate reader. Percent inhibition of proliferation was calculated using the following formula: 100×(1−Absorbancetreated−Background/(Absorbancecontrol−Background)
Absorbancetreated=absorbance at 490 nm in test wells, cells with test compound
Absorbancecontrol=absorbance at 490 nm in control wells, cells with no test compound
Background=absorbance 490 nm in wells containing media and no cells
The concentration of test compound required to inhibit proliferation of 50% of the cells (IC50) was determined by linear regression analysis.
Representative compounds of the invention were tested in the above-described Colo205 human colon carcinoma cell line in vitro assay and found to inhibit human colon carcinoma cell proliferation, and are summarized as follows: […]
Turning to `NC(=O)c1ccccc1N1CCN(c2c(F)cc3c(=O)c(C(=O)O)cn(-c4ccc(CN5CCCC5)cc4)c3c2Cl)CC1` [Example 10, 7-{4-[2-(aminocarbonyl)phenyl]piperazin-1-yl}-8-chloro-6-fluoro-4-oxo-1-[4-(pyrrolidin-1-ylmethyl)phenyl]-1,4-dihydroquinoline-3-carboxylic acid], the IC50 lay within 2000 to 20000 nM.
For `N#Cc1ccccc1N1CCN(c2c(F)cc3c(=O)c(C(=O)O)cn(-c4ccc(CN5CC[C@@H](O)C5)cc4)c3c2Cl)CC1` [Example 32, 8-chloro-7-[4-(2-cyanophenyl)piperazin-1-yl]-6-fluoro-1-(4-{[(3R)-3-hydroxypyrrolidin-1-yl]methyl}phenyl)-4-oxo-1,4-dihydroquinoline-3-carboxylic acid], the IC50 was below 500 nM.
For `CCN(CC)Cc1ccc(-n2cc(C(=O)O)c(=O)c3cc(F)c(N4CCN(c5ncccc5C#N)CC4)c(OC)c32)cc1` [Example 113, 7-[4-(3-cyanopyridin-2-yl)piperazin-1-yl]-1-{4-[(diethylamino)methyl]phenyl}-6-fluoro-8-methoxy-4-oxo-1,4-dihydroquinoline-3-carboxylic acid], the IC50 was below 500 nM.
The same measure for `CCN(CC)Cc1ccc(-n2cc(C(=O)O)c(=O)c3cc(F)c(N4CCN(c5ccccc5OC)CC4)c(OC)c32)cc1` [Example 110, 1-{4-[(diethylamino)methyl]phenyl}-6-fluoro-8-methoxy-7-[4-(2-methoxyphenyl)piperazin-1-yl]-4-oxo-1,4-dihydroquinoline-3-carboxylic acid]: below 500 nM.
In the case of `O=C(O)c1cn(-c2ccc(CN3CCCC3)cc2)c2c(OC(F)(F)F)c(N3CCN(c4ccccn4)CC3)c(F)cc2c1=O` [Example 124, 6-fluoro-4-oxo-7-(4-pyridin-2-yl-piperazin-1-yl)-1-[4-(pyrrolidin-1-ylmethyl)phenyl]-8-(trifluoromethoxy)-1,4-dihydroquinoline-3-carboxylic acid] it was below 500 nM; in that of `O=C(O)c1cn(-c2ccc(CN3CC[C@H](O)C3)cc2)c2c(Cl)c(N3CCN(c4ccc(F)cc4)CC3)c(F)cc2c1=O` [Example 29, 8-chloro-6-fluoro-7-[4-(4-fluorophenyl)-piperazin-1-yl]-1-(4-{[(3S)-3-hydroxypyrrolidin-1-yl]methyl}phenyl)-4-oxo-1,4-dihydroquinoline-3-carboxylic acid], below 500 nM; in that of `O=C(O)c1cn(-c2ccc(CN3CCCC3)cc2)c2c(OC(F)(F)F)c(N3CCN(c4ncccn4)CC3)c(F)cc2c1=O` [Example 123, 6-fluoro-4-oxo-7-(4-pyrimidin-2-yl-piperazin-1-yl)-1-[4-(pyrrolidin-1-ylmethyl)phenyl]-8-(trifluoromethoxy)-1,4-dihydroquinoline-3-carboxylic acid], below 500 nM.
For `COc1c(N2CCN(c3ccccc3SC)CC2)c(F)cc2c(=O)c(C(=O)O)cn(-c3ccc(CN4CCCC4)cc3)c12` [Example 88, 6-fluoro-8-methoxy-7-{4-[2-(methylthio)phenyl]-piperazin-1-yl}-4-oxo-1-[4-(pyrrolidin-1-ylmethyl)phenyl]-1,4-dihydroquinoline-3-carboxylic acid], the IC50 is below 500 nM.
With `O=C(O)c1cn(-c2ccc(CN3CCCC3)c(F)c2)c2c(Cl)c(N3CCN(c4ccc(F)cc4)CC3)c(F)cc2c1=O` [Example 186, 8-chloro-7-[4-(4-fluorophenyl)-piperazine-1-yl]-6-fluoro-1-(3-fluoro-4-pyrrolidin-1-ylmethyl-phenyl)-4-oxo-1,4-dihydroquinoline-3-carboxylic acid], the IC50 was below 500 nM.
For the molecule `Cc1cccnc1N1CCN(c2c(F)cc3c(=O)c(C(=O)O)cn(-c4ccc(CN(C)C)cc4)c3c2OC(F)(F)F)CC1` [Example 129, 1-{4-[(dimethylamino)methyl]phenyl}-6-fluoro-7-[4-(3-methylpyridin-2-yl)piperazin-1-yl]-4-oxo-8-(trifluoromethoxy)-1,4-dihydroquinoline-3-carboxylic acid], the IC50 fell in the range of 500 to 2000 nM.
The same measure for `COCCN(C)Cc1ccc(-n2cc(C(=O)O)c(=O)c3cc(F)c(N4CCN(c5ccccn5)CC4)c(Cl)c32)cc1` [Example 55]: 500 to 2000 nM; for `CCN(CC)Cc1ccc(-n2cc(C(=O)O)c(=O)c3cc(F)c(N4CCN(c5ccc(F)cc5)CC4)c(OC(F)(F)Cl)c32)cc1` [Example 163, 8-[chloro(difluoro)methoxy]-1-{4-[(diethylamino)methyl]phenyl}-6-fluoro-7-[4-(4-fluorophenyl)piperazin-1-yl]-4-oxo-1,4-dihydroquinoline-3-carboxylic acid]: below 500 nM.
`Cc1cccc(N2CCN(c3c(F)cc4c(=O)c(C(=O)O)cn(-c5ccc(CN(C)C)cc5)c4c3OC(F)(F)F)CC2)n1` [Example 127, 1-{4-[(dimethylamino)methyl]phenyl}-6-fluoro-7-[4-(6-methylpyridin-2-yl)piperazin-1-yl]-4-oxo-8-(trifluoromethoxy)-1,4-dihydroquinoline-3-carboxylic acid]: the IC50 was below 500 nM.
The same measure for `O=C(O)c1cn(-c2ccc(CNC3CCCC3)cc2)c2c(OC(F)(F)Cl)c(N3CCN(c4ccccn4)CC3)c(F)cc2c1=O` [Example 180, 8-(chloro-difluoromethoxy)-1-(4-cyclopentylaminomethyl-phenyl)-6-fluoro-4-oxo-7-(4-pyridin-2-yl-piperazin-1-yl)-1,4-dihydroquinoline-3-carboxylic acid]: below 500 nM; for `CCN(CC)Cc1ccc(-n2cc(C(=O)O)c(=O)c3cc(F)c(N4CCN(c5ncccn5)CC4)c(OC(F)(F)Cl)c32)cc1` [Example 160]: 500 to 2000 nM; for `O=C(O)c1cn(-c2ccc(CNC3CCCC3Cl)cc2)c2c(Cl)c(N3CCN(c4ccccn4)CC3)c(F)cc2c1=O` (centres unmarked) [Example 173, 8-chloro-1-{4-[(2-chloro-cyclopentylamino)-methyl]-phenyl}-6-fluoro-4-oxo-7-(4-pyridin-2-yl-piperazine-1-yl)-1,4-dihydro-quinoline-3-carboxylic acid]: 500 to 2000 nM.
As to `N#Cc1ccccc1N1CCN(c2c(F)cc3c(=O)c(C(=O)O)cn(-c4ccc(CN5CCCC5)cc4)c3c2Cl)CC1` [Example 4, 8-chloro-6-fluoro-7-[4-(2-cyanophenyl)-piperazin-1-yl]-4-oxo-1-[4-(pyrrolidin-1-ylmethyl)phenyl]1,4-dihydroquinoline-3-carboxylic acid], the IC50 is below 500 nM.
In the case of `Cc1ccccc1N1CCN(c2c(F)cc3c(=O)c(C(=O)O)cn(-c4ccc(CN5CCCC5)cc4)c3c2Cl)CC1` [Example 11, 8-chloro-6-fluoro-7-[4-(2-methylphenyl)-piperazin-1-yl]-4-oxo-1-[4-(pyrrolidin-1-ylmethyl)phenyl]-1,4-dihydroquinoline-3-carboxylic acid] it was 500 to 2000 nM; in that of `COc1c(N2CCN(c3ccc(F)cc3)CC2)c(F)cc2c(=O)c(C(=O)O)cn(-c3ccc(CN(C)C)cc3)c12` [Example 93, 1-{4-[(dimethylamino)methyl]phenyl}-6-fluoro-7-[4-(4-fluorophenyl)piperazin-1-yl]-8-methoxy-4-oxo-1,4-dihydroquinoline-3-carboxylic acid], below 500 nM.
As for `O=C(O)c1cn(-c2ccc(CN3CC[C@H](O)C3)cc2)c2c(Cl)c(N3CCN(c4ncccn4)CC3)c(F)cc2c1=O` [Example 27, 8-chloro-6-fluoro-1-(4-{[(3S)-3-hydroxy-pyrrolidin-1-yl]methyl}phenyl)-4-oxo-7-(4-pyrimidin-2-ylpiperazin-1-yl)-1,4-dihydroquinoline-3-carboxylic acid], the IC50 is below 500 nM.
The same measure for `COc1c(N2CCN(c3ccc(C#N)cc3)CC2)c(F)cc2c(=O)c(C(=O)O)cn(-c3ccc(CN4CCCC4)cc3)c12` [Example 77, 7-[4-(4-cyanophenyl)piperazin-1-yl]-6-fluoro-8-methoxy-4-oxo-1-[4-(pyrrolidin-1-ylmethyl)phenyl]-1,4-dihydroquinoline-3-carboxylic acid]: below 500 nM; for `CCN(CC)Cc1ccc(-n2cc(C(=O)O)c(=O)c3cc(F)c(N4CCN(c5ccc(F)cc5F)CC4)c(OC(F)(F)F)c32)cc1` [Example 137, 1-{4-[(diethylamino)methyl]phenyl}-7-[4-(2,4-difluorophenyl)piperazin-1-yl]-6-fluoro-4-oxo-8-(trifluoromethoxy)-1,4-dihydroquinoline-3-carboxylic acid]: below 500 nM; for `O=C(O)c1cn(-c2cccc(CN3CCCCC3)c2)c2c(OC(F)(F)F)c(N3CCN(c4ccc(F)cc4F)CC3)c(F)cc2c1=O` [Example 142, 7-[4-(2,4-difluorophenyl)piperazin-1-yl]-6-fluoro-4-oxo-1-[3-(piperidin-1-ylmethyl)phenyl]-8-(trifluoromethoxy)-1,4-dihydroquinoline-3-carboxylic acid]: 2000 to 20000 nM.
